Literature values in publication PMC3172588 (Organic & Biomolecular Chemistry, 2010).
Blank lines part the entries; values can stand above or below the compound they belong to.

Columns and labels:
[1] = system: sea urchin cADPR receptor (sea urchin egg homogenate, SUH)
[2] = system: T cell-cADPR receptor (permeabilised Jurkat T-cells, JTC); conditions: class in words; ref [8],[17],[23],[36]

- times more potent than cADPR in SUH ([1]; agonist, ref [20]): 70 times
Compound: 3-deaza cADPR

- EC50 ([1]; read-out: Activity in SUH: agonist EC50, Table 3, compounds synthesized by Shuto's group, ref [15],[38],[51],[52]): 19 µM
Compound: 8-Cl-cADPcR [8-Cl-cADPcR (5)]

- Activity in SUH (running text, literature) ([1]; class in words, ref [8],[13],[17],[23],[32],[36],[38]): antagonists
Compound: [N-]=[N+]=Nc1nc2c(=N)n3cnc2n1C1OC(COP(=O)(O)OP(=O)(O)OCC2OC3C(O)C2O)C(O)C1O (stereo not shown) [8-azido-cADPR]

Compound: O=c1c2nc(Br)n3c2ncn1[C@@H]1O[C@H](COP(=O)(O)OP(=O)(O)OC[C@H]2O[C@@H]3[C@H](O)[C@@H]2O)[C@@H](O)[C@H]1O [8-Bromo cIDPR]
- Activity in T cells / JTC (running text, literature) [2]: agonist activity
